From patent US20210009542A1 (Calico Life Sciences LLC, priority 2018, published 2021)
Like-named read-outs stand apart in the source and are kept apart here.

Tests used:
[1] = tested on: Pan T cells isolated from C57BL6 splenocytes; experiment: T cell activation assay (flow cytometry, CD25/CD69 on CD8 T cells); type: cell-based, mouse; conditions: for % CD25 within CD8+ / % CD69 within CD8+ / CD25 MFI / CD69 MFI: 30 μM compound, 2 days; for T cell activation and T cell function: with TCR stimulation
Experimental: Pan T cells were isolated from C57BL6 splenocytes using a MACS Pan T cell isolation kit II (Miltenyi Biotec, Auburn, Calif.) according to the manufacturer's instructions. Isolated T cells (200,000 cells/well in a 96 well flat-bottom plate) were cultured in RPMI 1640 supplemented with 10% FBS, […] 2-mercatoethanol, 100 U/mL penicillin, and 100 μg/mL streptomycin, and incubated with the indicated concentration of compound or DMSO in duplicates. After 1 hour, mouse T cell activator CD3/CD28 Dynabeads (ThermoFisher Scientific, Waltham, Mass.) were added at a 1:5 beads to cells ratio to stimulate the T cells for 2 or 3 days as outlined below. T cells with or without compound were incubated in the absence of T cell activator beads (media only) as control.
After 2 days of stimulation, activation status of T cells was assessed by flow cytometry. T cells were first subjected to Zombie Violet™ Fixable Viability dye (BioLegend, San Diego, Calif.) for dead cell exclusion, washed and then stained with BUV805 labeled anti-CD8, APC-R700 labeled anti-CD25 (both from BD Biosciences, San Jose, Calif.) and PE labeled anti-CD69 (BioLegend, San Diego, Calif.) antibodies. After staining, cells were fixed with 2% paraformaldehyde and acquired on a BD LSRFortessa™ X-20 flow cytometer (BD Biosciences, San Jose, Calif.) using BD FACSDiva™ software. Data was analyzed using FlowJo V10 (Flow Jo LLC, Ashland, Oreg.). Dead cells were excluded and frequencies of activated CD8 T cells was reported as the frequency of CD25+ or CD69+ cells within the CD8+ population. The expression level of CD25 and CD69 indicates the activation status of cells on a per cell basis and was evaluated by the mean fluorescence intensities (MFI) of CD25 and CD69.

[2] = target: T1, His tagged PTPN2 (TC45) protein (Homo sapiens, UniProt P17706); experiment: Mobility shift assay (MSA) for potency of PTPN2 inhibitors; type: biochemical
T1 construct: made in house
T1 sequence (P17706 with tags, fused parts or gaps isoform P17706-2): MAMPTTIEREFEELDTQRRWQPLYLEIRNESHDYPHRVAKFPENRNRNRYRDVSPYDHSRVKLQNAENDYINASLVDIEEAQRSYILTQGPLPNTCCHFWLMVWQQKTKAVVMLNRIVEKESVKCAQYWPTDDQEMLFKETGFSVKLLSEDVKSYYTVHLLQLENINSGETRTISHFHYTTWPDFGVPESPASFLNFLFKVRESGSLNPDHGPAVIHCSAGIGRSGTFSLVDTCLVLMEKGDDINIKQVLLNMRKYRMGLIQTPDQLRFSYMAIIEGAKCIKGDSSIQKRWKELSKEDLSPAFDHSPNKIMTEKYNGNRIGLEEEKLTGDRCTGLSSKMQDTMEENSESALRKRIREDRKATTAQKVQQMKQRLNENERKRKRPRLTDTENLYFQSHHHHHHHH
Method in brief: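 His-tagged PTPN2 TC45 (0.5 nM) was preincubated with compound (12-point, 1:3) for 10 min at room temperature in 50 mM HEPES pH 7.5, 1 mM EGTA, 10 mM EDTA, 0.01% Tween 20, 2 mM DTT. OG488-labelled phospho-insulin-receptor peptide ([…]) was then added for 10 min. After quenching, dephosphorylation was measured by microfluidic mobility shift and IC50 derived from % inhibition.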

[3] = tested on: B16F10 mouse melanoma cells; experiment: B16F10 IFNγ-induced cellular growth inhibition assay; type: cell-based; conditions: for inhibition at 33 µM: Mus musculus, B16-F10
Method in brief: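 B16F10 cells (500/well, DMEM + 10% FBS) dosed in triplicate at 100 μM to 0.001 μM (0.1% DMSO) with or without 0.5 ng/mL final mouse IFNγ. Confluence imaged every 6 h for 5 days; % growth inhibition calculated versus DMSO/with-IFNγ control once DMSO/no-IFNγ wells exceeded 95% confluence.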

[4] = anti-CD3/anti-CD28 Dynabeads (1:5 beads:cells)
[5] = +0.5 ng/mL IFNγ, 33 μM compound, relative to DMSO control, read-out: % B16F10 growth inhibition (+0.5 ng/mL IFNγ) @ 33 μM
[6] = no IFNγ, 33 μM compound, read-out: % B16F10 growth inhibition (no IFNγ) @ 33 μM

Compound | % CD25 within CD8+ [1, 4] [%] | % CD69 within CD8+ [1, 4] [%] | CD25 MFI [1, 4] | CD69 MFI [1, 4] | % CD25 within CD8+ ([1]; no TCR stimulation) [%] | % CD69 within CD8+ ([1]; no TCR stimulation) [%] | CD25 MFI ([1]; no TCR stimulation) | CD69 MFI ([1]; no TCR stimulation) | T cell activation and T cell function [1] | IC50 ([2]; Table 4, read-out: PTPN2 MSA IC50) [nM] | IC50 ([2]; read-out: PTPN2 IC50) [nM] | IC50 ([2]; read-out: PTPN2 MSA IC50) [nM] | inhibition at 33 µM ([3]; 33 μM, in the presence of IFNγ, read-out: growth inhibition in the presence of IFNγ compared to DMSO controls) [%] | inhibition at 33 µM [3, 5] [%] | inhibition at 33 µM [3, 6] [%] | % B16F10 growth inhibition (+0.5 ng/mL IFNγ) @ 33 μM ([3]; Table 4, +0.5 ng/mL IFNγ, 33 μM) | % B16F10 growth inhibition (no IFNγ) @ 33 μM ([3]; Table 4, no IFNγ, 33 μM) | growth inhibition in the absence of IFNγ ([3]; absence of IFNγ)
COc1ccc2cc(O)c(N3CC(=O)NS3(=O)=O)c(F)c2c1 [Compound 124, 5-(1-fluoro-3-hydroxy-7-methoxynaphthalen-2-yl)-1λ^6,2,5-thiadiazolidine-1,1,3-trione] | 32.55 | 61.90 | 846.5 | 1421.5 | 0.39 | 0.23 | 57.05 | 28.1 | increased both T cell activation and T cell function | 1 to 10 | 4.4 | 1 to 10 | 60 to 90 | 60 to 90 | < 25 | B (a percent growth inhibition of 60-90%) | D (a percent growth inhibition of <25%) | no observed growth inhibition
CC(C)(O)CCOc1ccc2cc(O)c(N3CC(=O)NS3(=O)=O)c(F)c2c1 [Compound 182, 5-[1-fluoro-3-hydroxy-7-(3-hydroxy-3-methylbutoxy)naphthalen-2-yl]-1λ^6,2,5-thiadiazolidine-1,1,3-trione] | 29.20 | 61.90 | 741 | 1601.5 | 1.17 | 0.45 | 72.4 | 18.3 | increased both T cell activation and T cell function |  |  | < 1 |  | 60 to 90 | < 25 |  |  | 
